Reference: patent US20250353873A1, “COMPOUNDS AND METHODS FOR MODULATING APOE EXPRESSION” (Ionis Pharmaceuticals, Inc., priority 2024, published 2025)
Strand notation (5' to 3'): a small letter for the sugar, then the base; units joined by * are phosphorothioate-linked, units joined directly phosphodiester-linked; [ ] holds rarer units or linkages, { } end groups; capitals alone tell only the bases. [ms] = mesyl phosphoramidate linkage; e = 2'-O-(2-methoxyethyl) (MOE); [5mC] = 5-methylcytosine; d = 2'-deoxy (DNA)

Assays:
human APOE RNA [1] = experiment: Activity in APOE 1549 knock-in mice, single ICV bolus, 4 weeks (Example 8); type: in vivo; conditions: n = 2, single ICV bolus of 300 μg, four weeks post treatment, Table 18
Procedure: Modified oligonucleotides described above were tested in the 1549 APOE knock-in mouse model described above.
APOE knock-in mice were divided into groups of either 2 or 6 mice each as described in the tables below. Each mouse received a single intracerebroventricular (ICV) bolus of 300 μg of modified oligonucleotide. A group of either 3 or 6 mice received a single ICV bolus with PBS as a negative control.
Four weeks post treatment, mice were sacrificed and RNA was extracted from cortical brain tissue and spinal cord for quantitative real-time RT-PCR analysis of RNA expression of APOE using primer probe set RTS3073 (described herein above). APOE RNA levels were normalized to mouse Ppia. Mouse Ppia was amplified using primer probe set m_cyclo24 (described herein above). Results are presented as percent human APOE RNA relative to the amount of human APOE RNA in PBS treated animals, (% control). Each experiment is identified in separate tables below.

human APOE RNA [2] = experiment: Activity in APOE C57BL/6NTac-Apoeem7250 knock-in mice, single ICV bolus, 20 weeks (Example 13); type: in vivo; conditions: single ICV bolus 300 μg, 20 weeks post treatment, normalized to mouse Ppia
In short: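 Knock-in mice (n=4) given a single ICV bolus of 300 μg oligonucleotide, PBS as control. After 20 weeks, human APOE RNA in cortex and spinal cord measured by RT-qPCR, normalized to mouse Ppia, expressed as % of PBS-treated animals.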

human APOE RNA [3] = experiment: Dose-dependent inhibition of human APOE RNA in HepG2 cells, electroporation, 24 hours (Example 6); type: cell-based
In short: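 HepG2 cells, 50,000 per well, electroporated with various oligonucleotide concentrations. APOE RNA measured with primer probe set RTS3073, normalized to GAPDH (RTS104), expressed as % of untreated control; IC50 then calculated.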

Row | Substance | APOE RNA (% control) Cortex (human APOE RNA [1]) | APOE RNA (% control) Spinal Cord (human APOE RNA [1]) | APOE RNA (% control) Cortex (human APOE RNA [2]) | APOE RNA (% control) Spinal Cord (human APOE RNA [2]) | IC50 (human APOE RNA [3]) | APOE RNA (% UTC) (human APOE RNA [3]; 5 nM) | APOE RNA (% UTC) (human APOE RNA [3]; 13 nM) | APOE RNA (% UTC) (human APOE RNA [3]; 33 nM) | APOE RNA (% UTC) (human APOE RNA [3]; 82 nM) | APOE RNA (% UTC) (human APOE RNA [3]; 205 nM) | APOE RNA (% UTC) (human APOE RNA [3]; 512 nM) | APOE RNA (% UTC) (human APOE RNA [3]; 1,280 nM) | APOE RNA (% UTC) (human APOE RNA [3]; 3,200 nM) | APOE RNA (% UTC) (human APOE RNA [3]; 8,000 nM) | APOE RNA (% UTC) (human APOE RNA [3]; 20,000 nM)
1 | 1736522: 6-10-4 MOE gapmer CTTGGTGAATCTTTATTAAA, linkages sooosszzssssssssoss (e[5mC]*eTeTeGeG*eT*dG[ms]dA[ms]dA*dT*d[5mC]*dT*dT*dT*dA*dT*eTeA*eA*eA) [compound 1736522] | 41 % control | 39 % control | 64 % control | 56 % control | 1380 nM | 110 % UTC | 88 % UTC | 90 % UTC | 82 % UTC | 67 % UTC | 59 % UTC | 45 % UTC | 41 % UTC | 18 % UTC | 43 % UTC
2 | 1736525: 6-10-4 MOE gapmer CTTGGTGAATCTTTATTAAA, linkages sooosszzsssssssssss (e[5mC]*eTeTeGeG*eT*dG[ms]dA[ms]dA*dT*d[5mC]*dT*dT*dT*dA*dT*eT*eA*eA*eA) [compound 1736525] | 35 % control | 41 % control | 71 % control | 118 % control | 1280 nM | 101 % UTC | 100 % UTC | 106 % UTC | 113 % UTC | 70 % UTC | 69 % UTC | 37 % UTC | 42 % UTC | 22 % UTC | 7 % UTC
3 | 1736527: 6-10-4 MOE gapmer CTTGGTGAATCTTTATTAAA, linkages sssooozzsssssssssss (e[5mC]*eT*eT*eGeGeTdG[ms]dA[ms]dA*dT*d[5mC]*dT*dT*dT*dA*dT*eT*eA*eA*eA) [compound 1736527] | 37 % control | 54 % control | 64 % control | 58 % control | 1580 nM | 104 % UTC | 108 % UTC | 96 % UTC | 97 % UTC | 92 % UTC | 63 % UTC | 37 % UTC | 37 % UTC | 34 % UTC | 23 % UTC
4 | 1736526: 6-10-4 MOE gapmer CTTGGTGAATCTTTATTAAA, linkages ssoooszzsssssssssss (e[5mC]*eT*eTeGeGeT*dG[ms]dA[ms]dA*dT*d[5mC]*dT*dT*dT*dA*dT*eT*eA*eA*eA) [compound 1736526] | 35 % control | 42 % control | 67 % control | 68 % control | 1150 nM | 89 % UTC | 114 % UTC | 100 % UTC | 85 % UTC | 71 % UTC | 51 % UTC | 58 % UTC | 28 % UTC | 25 % UTC | 18 % UTC
